Values quoted from earlier work as cited in US8173626B2, “Methods, dosing regimens and medications using anti-progestational agents for the treatment of disorders” (Danco Laboratories LLC, priority 2006, dated 2012).
Read-outs that look alike come from different tables or passages of the source.

Columns and labels:
glucocorticoid receptors = target: T1, glucocorticoid receptors (Homo sapiens, UniProt P04150); settings: cited from earlier work
T1 sequence (P04150 1-777): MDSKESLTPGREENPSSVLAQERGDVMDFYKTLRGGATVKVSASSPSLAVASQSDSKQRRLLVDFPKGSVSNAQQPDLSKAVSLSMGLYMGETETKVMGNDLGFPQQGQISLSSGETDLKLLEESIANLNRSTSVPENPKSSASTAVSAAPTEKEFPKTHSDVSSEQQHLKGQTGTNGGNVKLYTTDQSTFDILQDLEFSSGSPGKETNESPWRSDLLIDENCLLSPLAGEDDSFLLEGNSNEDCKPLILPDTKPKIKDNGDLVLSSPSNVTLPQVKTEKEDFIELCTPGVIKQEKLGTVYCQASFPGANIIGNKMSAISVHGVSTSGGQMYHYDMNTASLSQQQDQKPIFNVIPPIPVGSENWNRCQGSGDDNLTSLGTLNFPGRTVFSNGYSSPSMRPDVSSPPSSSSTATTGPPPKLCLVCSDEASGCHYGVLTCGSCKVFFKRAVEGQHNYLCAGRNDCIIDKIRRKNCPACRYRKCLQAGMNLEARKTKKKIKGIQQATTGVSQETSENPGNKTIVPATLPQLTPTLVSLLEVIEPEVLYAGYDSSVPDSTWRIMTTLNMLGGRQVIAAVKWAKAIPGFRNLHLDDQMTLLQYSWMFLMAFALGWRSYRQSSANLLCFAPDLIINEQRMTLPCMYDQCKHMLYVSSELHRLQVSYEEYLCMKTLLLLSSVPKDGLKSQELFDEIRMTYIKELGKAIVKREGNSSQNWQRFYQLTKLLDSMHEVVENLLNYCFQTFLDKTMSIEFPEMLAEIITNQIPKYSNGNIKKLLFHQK

breakthrough bleeding = settings: cited from earlier work; for subjects with irregular or prolonged bleeding: Newton et al.; for days of vaginal bleeding: Tyler et al.

For “(11β,17α)-(4-acetylphenyl)-17,23-epoxy-19,24-dinorchola-4,9,20-trien-3-one [Org 33628]”, the “activity against glucocorticoid receptors” value (“activity” for short) (glucocorticoid receptors) is given as “substantially inactive”.
In the case of `CC(=O)c1ccc([C@H]2C[C@@]3(C)[C@@H](CC[C@@]3(O)C(F)(F)C(F)(F)F)[C@@H]3CCC4=CC(=O)CCC4=C32)cc1` [ZK230211], the “activity” value (glucocorticoid receptors) is listed as “substantially inactive”.
In the case of `CC(=O)O[C@]1(C(C)=O)CC[C@H]2[C@@H]3C[C@H](C)C4=CC(=O)CC[C@]4(C)[C@H]3CC[C@@]21C` [DMPA, depo-medroxyprogesterone acetate], the “subjects with irregular or prolonged bleeding” value (breakthrough bleeding; 9-12th month of use) is given as 34%, the “days of vaginal bleeding” value (breakthrough bleeding; between the first and second injection) is given as “around 30 % of days” and the “days of vaginal bleeding” value (breakthrough bleeding; between the second and third injection) is given as ~20 % of days. For the same compound, the “subjects with irregular or prolonged bleeding” value (breakthrough bleeding; first 3 months of DMPA) was 90% and the “discontinuation rate due to breakthrough bleeding” value (breakthrough bleeding; first year of use, Toppozada et al.) was no more than 40%.
In the case of `C[C@H]1CC2=CC(=O)CCC2=C2[C@@H]1[C@@H]1CC[C@@]3(CCCO3)[C@@]1(C)C[C@@H]2c1ccc(N(C)C)cc1` [Org 31806, (7β,11β,17β)-11-(4-NMe2-phenyl)-7-Me-4′,5′-dihydrospiro(oestra-4,9-diene-17,2′(3′H)-furan)-3-one], the “activity” value (glucocorticoid receptors) is given as “substantially inactive”.
In the case of `C[C@@H]1C[C@@H]2C(=C3CCC(=O)C=C31)[C@@H](c1ccc(N(C)C)cc1)C[C@@]1(C)[C@H]2CC[C@@]12CCCO2` [Org 31710, (6α,11β,17β)-11-(4-NMe2-phenyl)-6-Me-4′,5′-dihydrospiro[oestra-4,9-diene-17,2(3′H)-furan]-3-one], the “activity” value (glucocorticoid receptors) is given as “substantially inactive”.
